Assay results: EPA's ToxValDB 9.5

Test system: Rattus norvegicus
Details: short-term, duration: 28 days, oral, gavage, Sprague-Dawley

## O=C(O)C(F)(F)C(F)(F)C(F)(F)C(F)(F)C(F)(F)F [Perfluorohexanoic acid]
F, Clinical chemistry_Alanine aminotransferase
  LOEL: 500 mg/kg-day
F, Clinical chemistry_Albumin
  NOEL: 1000 mg/kg-day
F, Clinical chemistry_Albumin/globulin ratio
  LOEL: 1000 mg/kg-day
F, Clinical chemistry_Alkaline phosphatase
  LOEL: 1000 mg/kg-day
F, Clinical chemistry_Aspartate aminotransferase
  LOEL: 500 mg/kg-day
F, Clinical chemistry_Cholesterol
  NOEL: 1000 mg/kg-day
F, Clinical chemistry_Creatinine kinase
  NOEL: 1000 mg/kg-day
F, Clinical chemistry_Direct bilirubin
  NOEL: 1000 mg/kg-day
F, Clinical chemistry_Free thyroxine
  NOEL: 1000 mg/kg-day
F, Clinical chemistry_Globulin
  LOEL: 1000 mg/kg-day
F, Clinical chemistry_Indirect bilirubin
  NOEL: 1000 mg/kg-day
F, Clinical chemistry_Sorbitol dehydrogenase
  NOEL: 1000 mg/kg-day
F, Clinical chemistry_Testosterone
  NOEL: 1000 mg/kg-day
F, Clinical chemistry_Thyroid stimulating hormone
  NOEL: 1000 mg/kg-day
F, Clinical chemistry_Total bile acids
  LOEL: 1000 mg/kg-day
F, Clinical chemistry_Total protein
  LOEL: 1000 mg/kg-day
F, Clinical chemistry_Total thyroxine
  NOEL: 1000 mg/kg-day
F, Clinical chemistry_Total triiodothyronine
  NOEL: 1000 mg/kg-day
F, Clinical chemistry_Triglycerides
  NOEL: 1000 mg/kg-day
F, Gene expression_Acox1
  LOEL: 500 mg/kg-day
F, Gene expression_Cyp2b1
  LOEL: 62.6 mg/kg-day
F, Gene expression_Cyp2b2
  LOEL: 62.6 mg/kg-day
F, Gene expression_Cyp4a1
  LOEL: 500 mg/kg-day
F, Hematology_Erythrocytes
  LOEL: 250 mg/kg-day
F, Hematology_Hematocrit
  LOEL: 250 mg/kg-day
F, Hematology_Hemoglobin
  LOEL: 250 mg/kg-day
F, Hematology_Mean corpuscular hemoglobin concentration
  LOEL: 1000 mg/kg-day
F, Hematology_Mean corpuscular volume
  LOEL: 500 mg/kg-day
F, Hematology_Platelets
  LOEL: 1000 mg/kg-day
F, Hematology_Reticulocytes
  LOEL: 500 mg/kg-day
F, Nonneoplastic effects_Bone marrow - Hypocellularity
  NOEL: 1000 mg/kg-day
F, Nonneoplastic effects_Forestomach - Epithelium, hyperplasia
  NOEL: 1000 mg/kg-day
F, Nonneoplastic effects_Forestomach - Inflammation, chronic active
  NOEL: 1000 mg/kg-day
F, Nonneoplastic effects_Kidney - Nephropathy, chronic progressive
  LOEL: 1000 mg/kg-day
F, Nonneoplastic effects_Liver - Hepatocyte, Necrosis
  NOEL: 1000 mg/kg-day
F, Nonneoplastic effects_Liver - Hepatocyte, cytoplasmic alteration
  LOEL: 1000 mg/kg-day
F, Nonneoplastic effects_Liver - Hepatocyte, hypertrophy
  LOEL: 1000 mg/kg-day
F, Nonneoplastic effects_Liver - Hepatocyte, vacuolization cytoplasmic
  NOEL: 1000 mg/kg-day
F, Nonneoplastic effects_Lymph nodes - Mandibular, atrophy
  NOEL: 1000 mg/kg-day
F, Nonneoplastic effects_Lymph nodes - Mesenteric, atrophy
  NOEL: 1000 mg/kg-day
F, Nonneoplastic effects_Nose - Olfactory epithelium, degeneration
  LOEL: 250 mg/kg-day
F, Nonneoplastic effects_Nose - Olfactory epithelium, hyperplasia
  LOEL: 250 mg/kg-day
F, Nonneoplastic effects_Nose - Olfactory epithelium, inflammation, suppurative
  LOEL: 500 mg/kg-day
F, Nonneoplastic effects_Nose - Respiratory epithelium, hyperplasia
  NOEL: 1000 mg/kg-day
F, Nonneoplastic effects_Nose - Respiratory epithelium, inflammation, chronic active
  NOEL: 1000 mg/kg-day
F, Nonneoplastic effects_Spleen - Atrophy
  NOEL: 1000 mg/kg-day
F, Nonneoplastic effects_Spleen - Extramedullary hematopoiesis, increased
  LOEL: 1000 mg/kg-day
F, Nonneoplastic effects_Thymus - Atrophy
  NOEL: 1000 mg/kg-day
F, Nonneoplastic effects_Thymus - Lymphocyte, apoptosis
  NOEL: 1000 mg/kg-day
F, Nonneoplastic effects_Thyroid gland - Follicular cell hypertrophy
  NOEL: 1000 mg/kg-day
F, Organ weights_Liver - Absolute
  LOEL: 500 mg/kg-day
F, Organ weights_Liver - Relative
  LOEL: 500 mg/kg-day
F, Organ weights_R. adrenal gland - Absolute
  NOEL: 1000 mg/kg-day
F, Organ weights_R. adrenal gland - Relative
  NOEL: 1000 mg/kg-day
F, Organ weights_R. kidney - Absolute
  LOEL: 1000 mg/kg-day
F, Organ weights_R. kidney - Relative
  LOEL: 1000 mg/kg-day
F, Organ weights_Spleen - Absolute
  NOEL: 1000 mg/kg-day
F, Organ weights_Spleen - Relative
  NOEL: 1000 mg/kg-day
F, Organ weights_Thymus - Absolute
  NOEL: 1000 mg/kg-day
F, Organ weights_Thymus - Relative
  NOEL: 1000 mg/kg-day
F, Organ weights_Thyroid gland - Absolute
  NOEL: 1000 mg/kg-day
F, Organ weights_Thyroid gland - Relative
  NOEL: 1000 mg/kg-day
F, Survival rates
  NOEL: 1000 mg/kg-day
F, body weight
  NOEL: 1000 mg/kg-day
M, Clinical chemistry_Alanine aminotransferase
  LOEL: 500 mg/kg-day
M, Clinical chemistry_Albumin
  LOEL: 125 mg/kg-day
M, Clinical chemistry_Albumin/globulin ratio
  LOEL: 250 mg/kg-day
M, Clinical chemistry_Alkaline phosphatase
  LOEL: 500 mg/kg-day
M, Clinical chemistry_Aspartate aminotransferase
  LOEL: 500 mg/kg-day
M, Clinical chemistry_Cholesterol
  LOEL: 62.6 mg/kg-day
M, Clinical chemistry_Creatinine kinase
  NOEL: 1000 mg/kg-day
M, Clinical chemistry_Direct bilirubin
  NOEL: 1000 mg/kg-day
M, Clinical chemistry_Free thyroxine
  LOEL: 62.6 mg/kg-day
M, Clinical chemistry_Globulin
  LOEL: 125 mg/kg-day
M, Clinical chemistry_Sorbitol dehydrogenase
  LOEL: 1000 mg/kg-day
M, Clinical chemistry_Testosterone
  NOEL: 1000 mg/kg-day
M, Clinical chemistry_Thyroid stimulating hormone
  NOEL: 1000 mg/kg-day
M, Clinical chemistry_Total bile acids
  LOEL: 1000 mg/kg-day
M, Clinical chemistry_Total protein
  LOEL: 250 mg/kg-day
M, Clinical chemistry_Total thyroxine
  LOEL: 62.6 mg/kg-day
M, Clinical chemistry_Total_triiodothyronine
  LOEL: 62.6 mg/kg-day
M, Clinical chemistry_Triglycerides
  NOEL: 1000 mg/kg-day
M, Gene expression_Acox1
  LOEL: 500 mg/kg-day
M, Gene expression_Acyl-CoA oxidase
  LOEL: 250 mg/kg-day
M, Gene expression_Cyp2b1
  LOEL: 62.6 mg/kg-day
M, Gene expression_Cyp2b2
  LOEL: 62.6 mg/kg-day
M, Gene expression_Cyp4a1
  LOEL: 62.6 mg/kg-day
M, Hematology_Erythrocytes
  LOEL: 62.6 mg/kg-day
M, Hematology_Hematocrit
  LOEL: 62.6 mg/kg-day
M, Hematology_Hemoglobin
  LOEL: 62.6 mg/kg-day
M, Hematology_Mean corpuscular hemoglobin concentration
  LOEL: 1000 mg/kg-day
M, Hematology_Mean corpuscular volume
  LOEL: 250 mg/kg-day
M, Hematology_Platelets
  LOEL: 500 mg/kg-day
M, Hematology_Reticulocytes
  LOEL: 500 mg/kg-day
M, Nonneoplastic effects_Bone marrow - Hypocellularity
  NOEL: 1000 mg/kg-day
M, Nonneoplastic effects_Epididymis - Duct, exfoliated germ cell
  NOEL: 1000 mg/kg-day
M, Nonneoplastic effects_Epididymis - Epithelium, apoptosis
  NOEL: 1000 mg/kg-day
M, Nonneoplastic effects_Epididymis - Hypospermia
  NOEL: 1000 mg/kg-day
M, Nonneoplastic effects_Forestomach - Epithelium, hyperplasia
  NOEL: 1000 mg/kg-day
M, Nonneoplastic effects_Forestomach - Inflammation, chronic active
  NOEL: 1000 mg/kg-day
M, Nonneoplastic effects_Kidney - Nephropathy, chronic progressive
  NOEL: 1000 mg/kg-day
M, Nonneoplastic effects_Liver - Hepatocyte, Necrosis
  NOEL: 1000 mg/kg-day
M, Nonneoplastic effects_Liver - Hepatocyte, cytoplasmic alteration
  LOEL: 1000 mg/kg-day
M, Nonneoplastic effects_Liver - Hepatocyte, hypertrophy
  LOEL: 500 mg/kg-day
M, Nonneoplastic effects_Liver - Hepatocyte, vacuolization cytoplasmic
  NOEL: 1000 mg/kg-day
M, Nonneoplastic effects_Lymph nodes - Mandibular, atrophy
  NOEL: 1000 mg/kg-day
M, Nonneoplastic effects_Lymph nodes - Mesenteric, atrophy
  NOEL: 1000 mg/kg-day
M, Nonneoplastic effects_Nose - Olfactory epithelium, degeneration
  LOEL: 250 mg/kg-day
M, Nonneoplastic effects_Nose - Olfactory epithelium, hyperplasia
  LOEL: 250 mg/kg-day
M, Nonneoplastic effects_Nose - Olfactory epithelium, inflammation, suppurative
  LOEL: 1000 mg/kg-day
M, Nonneoplastic effects_Nose - Respiratory epithelium, hyperplasia
  NOEL: 1000 mg/kg-day
M, Nonneoplastic effects_Nose - Respiratory epithelium, inflammation, chronic active
  NOEL: 1000 mg/kg-day
M, Nonneoplastic effects_Spleen - Atrophy
  NOEL: 1000 mg/kg-day
M, Nonneoplastic effects_Spleen - Extramedullary hematopoiesis, increased
  LOEL: 500 mg/kg-day
M, Nonneoplastic effects_Testes - Germinal epithelium, degeneration
  NOEL: 1000 mg/kg-day
M, Nonneoplastic effects_Testes - Interstitial cell, atrophy
  NOEL: 1000 mg/kg-day
M, Nonneoplastic effects_Testes - Seminiferous tubule, spermatid retention
  NOEL: 1000 mg/kg-day
M, Nonneoplastic effects_Thymus - Atrophy
  NOEL: 1000 mg/kg-day
M, Nonneoplastic effects_Thymus - Lymphocyte, apoptosis
  NOEL: 1000 mg/kg-day
M, Nonneoplastic effects_Thyroid gland - Follicular cell hypertrophy
  NOEL: 1000 mg/kg-day
M, Organ weights_Liver - Absolute
  LOEL: 500 mg/kg-day
M, Organ weights_Liver - Relative
  LOEL: 250 mg/kg-day
M, Organ weights_R. adrenal gland - Absolute
  NOEL: 1000 mg/kg-day
M, Organ weights_R. adrenal gland - Relative
  NOEL: 1000 mg/kg-day
M, Organ weights_R. kidney - Absolute
  NOEL: 1000 mg/kg-day
M, Organ weights_R. kidney - Relative
  LOEL: 500 mg/kg-day
M, Organ weights_R. testis - Absolute
  NOEL: 1000 mg/kg-day
M, Organ weights_Spleen - Absolute
  NOEL: 1000 mg/kg-day
M, Organ weights_Spleen - Relative
  NOEL: 1000 mg/kg-day
M, Organ weights_Thymus - Absolute
  LOEL: 1000 mg/kg-day
M, Organ weights_Thymus - Relative
  NOEL: 1000 mg/kg-day
M, Organ weights_Thyroid gland - Absolute
  NOEL: 1000 mg/kg-day
M, Organ weights_Thyroid gland - Relative
  NOEL: 1000 mg/kg-day
M, Reproductive toxicity_Altered sperm parameters
  LOEL: 1000 mg/kg-day
M, Survival rates
  NOEL: 1000 mg/kg-day
M, body weight
  LOEL: 1000 mg/kg-day
